Measured values: US20120129712A1, “ANTIBODIES DIRECTED TO TRA ANTIGENS, AND METHODS OF PRODUCTION, SCREENING AND ANALYSIS OF SAID ANTIBODIES, AS WELL AS METHODS OF ANALYSIS OF STEM CELLS AND CANCER CELL” (GLYKOS FINLAND OY, priority 2009, published 2012)
“Also recorded” adds a separate entry of the source.

Tests used:
Tra-1-81 antibody = test: Glycan microarray analysis (Consortium for Functional Glycomics printed array v3.2), binding of Tra-1-81; set-up: RFU (glycan binding signal of Tra-1-81): dose or concentration left out as unconfirmed; conditions: for RFU (glycan binding signal of Tra-1-81): Tra-1-81 (Chemicon MAB4381), average RFU of 6 replicates after removal of highest and lowest values; for binding of Tra-1-81 to the glycan, in words: glycan microarray
Description: (§1) Tra-1-81 and Tra-1-60 antibodies were from Chemicon (MAB4381 and MAB4361, respectively).
(§2) Glycan microarray analysis was carried out by the Consortium for Functional Glycomics. Glycan microarrays were printed as described (Blixt 2004). Version 3.2 of the human printed glycan array was used for analysis. Binding analysis was performed at […] of antibody. Data are reported as average RFU of 6 replicates after removal of highest and lowest values.

Tra-1-60 antibody = test: Glycan microarray analysis (Consortium for Functional Glycomics printed array v3.2), binding of Tra-1-60
Description: as §1, §2

Row | Substance | RFU (glycan binding signal of Tra-1-81) (Tra-1-81 antibody) | binding of Tra-1-81 to the glycan, in words (Tra-1-81 antibody; listed as Galβ1-3GlcNAcβ1-3Galβ1-4GlcNAc) | binding of Tra-1-60 to the glycan, in words (Tra-1-60 antibody) | binding of Tra-1-81 to the glycan, in words (Tra-1-81 antibody)
1 | Galb1-3GlcNAcb1-3Galb1-4GlcNAcb-Sp0 [Chart # 130] | 721 RFU | binding; also recorded: specifically bound | exclusively bound | –
2 | Galb1-3GlcNAcb1-3Galb1-4Glcb-Sp10 [Chart # 131] | – | – | very weak or non-essential binding | weakly bound
3 | Galb1-3GlcNacb1-3(Galb1-3GlcNacb1-3Galb1-4GlcNacb1-6)Galb1-4Glcb-Sp0 [Chart # 379] | 147 RFU | – | – | specifically bound
4 | Lewis a | – | – | – | weakly bound
